Test results as given in PubChem BioAssay (NCI).
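Cells were grown in 96-well plates and exposed to each compound for 48 hours at five concentrations; endpoints were interpolated linearly between bracketing concentrations, or set to the highest concentration if not reached. TGI: total growth inhibition.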

Assays:
Experiment in all cases: inhibition of tumour cell growth, NCI panel, 48 h
[1] = test system: SNB-19 CNS
[2] = test system: HT29 colon
[3] = test system: U251 CNS
[4] = test system: SK-MEL-5 melanoma
[5] = test system: SF-268 CNS
[6] = test system: HOP-62 NSCLC
[7] = test system: IGROV1 ovarian
[8] = test system: T-47D breast
[9] = test system: MDA-MB-231 breast
[10] = test system: NCI-H23 lung
[11] = test system: M14 melanoma
[12] = test system: SNB-75 CNS
[13] = test system: A549 NSCLC
[14] = test system: HS 578T breast
[15] = test system: EKVX NSCLC
[16] = test system: SK-MEL-2 melanoma
[17] = test system: HCT-116 colon
[18] = test system: MOLT-4 leukemia
[19] = test system: SW-620 colon
[20] = test system: RPMI-8226 leukemia
[21] = test system: ACHN renal
[22] = test system: A498 renal
[23] = test system: CAKI-1 renal
[24] = test system: 786-0 renal
[25] = test system: OVCAR-3 ovarian
[26] = test system: PC-3 prostate
[27] = test system: RXF 393 renal
[28] = test system: SK-OV-3 ovarian
[29] = test system: NCI-H226 lung
[30] = test system: SR leukemia
[31] = test system: SN12C renal
[32] = test system: DU-145 prostate
[33] = test system: OVCAR-8 ovarian
[34] = test system: COLO 205 colon
[35] = test system: MDA-N
[36] = test system: MDA-MB-435
[37] = test system: TK-10 renal
[38] = test system: NCI/ADR-RES ovarian
[39] = test system: OVCAR-4 ovarian
[40] = test system: SF-295 CNS
[41] = test system: UO-31 renal
[42] = test system: LOX IMVI melanoma
[43] = test system: MALME-3M melanoma
[44] = test system: NCI-H522 lung
[45] = test system: SK-MEL-28 melanoma
[46] = test system: MCF7 breast
[47] = test system: OVCAR-5 ovarian
[48] = test system: UACC-257 melanoma
[49] = test system: HOP-92 NSCLC
[50] = test system: SF-539 CNS
[51] = test system: BT-549 breast
[52] = test system: NCI-H460 lung
[53] = test system: UACC-62 melanoma
[54] = test system: KM12 colon
[55] = test system: HCT-15 colon
[56] = test system: K-562 leukemia
[57] = test system: HCC-2998 colon
[58] = test system: CCRF-CEM leukemia

CC(C)(C)c1cc(C2=NNC(c3ccccc3)C2)cc(C(C)(C)C)c1O (stereo not drawn)
TGI [1]: 36.4 µM | TGI [2]: 50.3 µM | TGI [3]: 28.8 µM | TGI [4]: 23 µM | TGI [5]: 36 µM | TGI [6]: 33.3 µM | TGI [7]: 30.2 µM | TGI [8]: 26.8 µM | TGI [9]: 27.5 µM | TGI [10]: 33.7 µM | TGI [11]: 34.1 µM | TGI [12]: 25.3 µM | TGI [13]: 34.5 µM | TGI [14]: 55.6 µM | TGI [15]: 36.6 µM | TGI [16]: 29.3 µM | TGI [17]: 28.3 µM | TGI [18]: > 100 µM | TGI [19]: 34.3 µM | TGI [20]: 43.8 µM | TGI [21]: 29.8 µM | TGI [22]: 29.7 µM | TGI [23]: 28.2 µM | TGI [24]: 29.6 µM | TGI [25]: 14.6 µM | TGI [26]: 27.7 µM | TGI [27]: 23.2 µM | TGI [28]: 38.2 µM | TGI [29]: 32.8 µM | TGI [30]: 27.5 µM | TGI [31]: 32.7 µM | TGI [32]: 30.3 µM | TGI [33]: 31.7 µM | TGI [34]: 31.7 µM | TGI [35]: 28.5 µM | TGI [36]: 26.8 µM | TGI [37]: 29.4 µM | TGI [38]: 38.7 µM | TGI [39]: 33.2 µM | TGI [40]: 37.7 µM | TGI [41]: 30.3 µM | TGI [42]: 29.6 µM | TGI [43]: 34.7 µM | TGI [44]: 28.4 µM | TGI [45]: 31.5 µM | TGI [46]: 27.7 µM | TGI [47]: 40.9 µM | TGI [48]: 27.5 µM | TGI [49]: 31.2 µM | TGI [50]: 44.7 µM | TGI [51]: 32 µM | TGI [52]: 29.7 µM | TGI [53]: 28 µM | TGI [54]: 31.7 µM | TGI [55]: 31.2 µM

CCOC(=O)c1cn2c(n1)sc1c(Cl)c(Cl)ccc12
TGI [1]: 98.9 µM | TGI [2]: > 45.6 µM | TGI [3]: > 100 µM | TGI [4]: 65.7 µM | TGI [5]: > 54.9 µM | TGI [6]: > 51.3 µM | TGI [7]: > 100 µM | TGI [8]: > 90.5 µM | TGI [9]: > 100 µM | TGI [10]: > 100 µM | TGI [11]: > 96.3 µM | TGI [56]: > 46.9 µM | TGI [12]: 73.1 µM | TGI [13]: > 100 µM | TGI [14]: 28.6 µM | TGI [15]: > 100 µM | TGI [16]: > 100 µM | TGI [17]: 33 µM | TGI [18]: > 40 µM | TGI [19]: > 100 µM | TGI [57]: 98 µM | TGI [20]: > 100 µM | TGI [21]: > 100 µM | TGI [22]: > 100 µM | TGI [23]: 65.3 µM | TGI [24]: 31.2 µM | TGI [25]: > 58.1 µM | TGI [58]: > 100 µM | TGI [26]: > 100 µM | TGI [27]: > 100 µM | TGI [28]: > 100 µM | TGI [29]: 51.6 µM | TGI [30]: > 55.2 µM | TGI [31]: 39 µM | TGI [32]: > 100 µM | TGI [33]: > 66 µM | TGI [34]: 19.1 µM | TGI [35]: 3.83 µM | TGI [36]: 12.6 µM | TGI [37]: > 79.4 µM | TGI [38]: 97.9 µM | TGI [39]: > 100 µM | TGI [40]: > 100 µM | TGI [41]: > 100 µM | TGI [42]: > 100 µM | TGI [43]: 8.92 µM | TGI [44]: 43.4 µM | TGI [45]: > 100 µM | TGI [46]: > 100 µM | TGI [47]: > 100 µM | TGI [48]: > 100 µM | TGI [49]: > 100 µM | TGI [50]: 21.4 µM | TGI [51]: > 100 µM | TGI [52]: > 100 µM | TGI [53]: > 100 µM | TGI [54]: > 58.2 µM | TGI [55]: > 100 µM
